The source of these data is PMC6155437 (Molecules : A Journal of Synthetic Chemistry and Natural …, 2017).

What all share (type): in vitro ADME
For one data set, the target named is T1, UGT1A6 (Homo sapiens, UniProt P19224).
T1 construct: pooled human liver microsomes (0.2 mg/mL), 5 mM UDPGA; tissue Corning Life Sciences; host or cells: pooled human liver microsomes (150 donors)
T1 sequence (P19224 27-532): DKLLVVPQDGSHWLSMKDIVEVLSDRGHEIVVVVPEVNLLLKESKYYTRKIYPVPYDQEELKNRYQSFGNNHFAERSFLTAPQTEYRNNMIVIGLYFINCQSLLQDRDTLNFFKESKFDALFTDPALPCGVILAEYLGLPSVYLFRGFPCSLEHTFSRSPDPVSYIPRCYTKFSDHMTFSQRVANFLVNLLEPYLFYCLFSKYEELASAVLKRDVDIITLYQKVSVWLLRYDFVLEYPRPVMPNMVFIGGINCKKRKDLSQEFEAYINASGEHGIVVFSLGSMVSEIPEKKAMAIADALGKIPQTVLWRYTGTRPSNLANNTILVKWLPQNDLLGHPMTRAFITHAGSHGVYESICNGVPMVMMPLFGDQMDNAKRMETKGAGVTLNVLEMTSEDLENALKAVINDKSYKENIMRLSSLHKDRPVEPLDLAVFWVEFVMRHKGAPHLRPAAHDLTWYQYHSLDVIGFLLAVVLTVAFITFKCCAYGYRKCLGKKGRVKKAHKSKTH
The data set can be described thus: UGT1A6 N-acetylserotonin glucuronidation inhibition in human liver microsomes. The note with it: at 50 µM. As for the experimental part: (§1) After 3 min of pre-incubation at 37 °C, the reactions were initiated by addition of UDPGA; incubation continued for 60 min at 37 °C in a shaking water bath. The reaction was stopped by placing the tubes on ice and adding 50 µL ice-cold acetonitrile containing internal standards (propofol glucuronide for chenodeoxycholic acid 24-acyl-β-glucuronide and mycophenolic acid glucuronide, and meloxicam for SN-38 glucuronide, trifluoperazine glucuronide, N-acetylserotonin β-D-glucuronide, and naloxone 3-β-D-glucuronide). The incubation mixtures were centrifuged (13,000× g, 4 min, 4 °C). All assays were performed in triplicate and average values were used in calculations.
(§2) The metabolites formed from the six UGT cocktail substrates were measured simultaneously using the LC-MS/MS method. The ESI source settings in both positive- and negative-ion modes for metabolite ionization were: capillary voltage, 4200 V; vaporizer temperature, 350 °C; capillary temperature, 330 °C; sheath gas pressure, 35 psi; and auxiliary gas pressure, 15 psi. […] Data were processed using Xcalibur software.
(§3) The apparent kinetic parameters for inhibitory potential (Ki and kinact values) and inhibition mode were estimated from the fitted curves using the Enzyme Kinetics program (ver. 1.1; Systat Software Inc., San Jose, CA, USA).
Background: Liver microsomes are a subcellular fraction often used to study metabolism.

The next data set deals with T2, CYP2C9 (Homo sapiens, UniProt P11712).
T2 construct: tissue Corning Life Sciences; host or cells: pooled human liver microsomes (150 donors)
The data set can be described thus: CYP2C9 diclofenac 4′-hydroxylase inhibition in human liver microsomes. The method, then: After a 3-min pre-incubation at 37 °C, the reactions were initiated by addition of NADPH and incubation proceeded for 15 min at 37 °C in a shaking water bath. […] The incubation mixtures were centrifuged (13,000× g, 4 min, 4 °C). All assays were performed in triplicate and mean values were used in calculations.
Each reaction was initiated by adding the seven-CYP probe substrate cocktail.
The reactions were initiated by addition of NADPH at 37 °C and stopped after 10 min by placing the incubation tubes on ice and adding 100 μL of ice-cold methanol containing an internal standard (d9-1-hydroxybufuralol). The incubation mixtures were centrifuged (13,000× g, 4 min, 4 °C) and then 50 μL of the supernatant was diluted with 50 μL of water. Aliquots (5 μL) of the diluted supernatants were analyzed by LC-MS/MS.
The metabolites formed from CYP substrates were quantified simultaneously by a LC-MS/MS method described previously. The ESI source settings in positive-ion mode for metabolite ionization were: capillary voltage, 4200 V; vaporizer temperature, 350 °C; capillary temperature, 330 °C; sheath gas pressure, 35 psi; and auxiliary gas pressure, 15 psi. Quantification was performed by selected reaction monitoring (SRM) of the [M + H]^+ ion and the related product ion for each metabolite: acetaminophen, 152.1 > 110.3; N-desethylamodiaquine, 328.1 > 283.0; 7-hydroxycoumarin, 163.0 > 107.2; 4-hydroxybupropion, 256.1 > 238.0; 4′-hydroxydiclofenac, 312.0 > 231.1; 4′-hydroxy-mephenytoin; 235.1 > 150.1; 1′-hydroxybufuralol, 278.1 > 186.1; 1′-hydroxymidazolam, 341.9 > 324.0; ^13C2,^15N-acetaminophen 155.1 > 111.2; and d9-1′-hydroxybufuralol, 287.2 > 187.0. Analytical data were processed using Xcalibur software (version 2.1, Thermo Scientific).
as §3

The target of another data set is T3, UGT1A9 (Homo sapiens, UniProt O60656).
T3 construct: pooled human liver microsomes (0.2 mg/mL), 5 mM UDPGA; tissue Corning Life Sciences; host or cells: pooled human liver microsomes (150 donors)
T3 sequence (O60656 26-530): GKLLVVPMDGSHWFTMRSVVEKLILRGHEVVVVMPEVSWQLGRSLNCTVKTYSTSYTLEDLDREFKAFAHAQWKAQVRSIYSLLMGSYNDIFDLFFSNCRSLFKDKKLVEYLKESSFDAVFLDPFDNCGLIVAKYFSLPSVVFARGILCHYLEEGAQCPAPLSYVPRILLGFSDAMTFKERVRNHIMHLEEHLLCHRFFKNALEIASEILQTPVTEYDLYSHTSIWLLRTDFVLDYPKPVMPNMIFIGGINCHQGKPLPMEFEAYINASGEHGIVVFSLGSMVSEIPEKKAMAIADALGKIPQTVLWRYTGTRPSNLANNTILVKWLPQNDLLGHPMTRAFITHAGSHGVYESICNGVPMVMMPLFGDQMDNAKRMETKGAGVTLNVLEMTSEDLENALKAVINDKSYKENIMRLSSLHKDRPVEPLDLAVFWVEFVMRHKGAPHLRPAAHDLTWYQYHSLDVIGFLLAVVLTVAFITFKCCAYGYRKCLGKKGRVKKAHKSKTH
Put plainly: UGT1A9 mycophenolic acid glucuronidation inhibition in human liver microsomes. To be noted: at 50 µM. As for the experimental part:
as §1, §2, §3

Entries after “also recorded” stand apart in the source; their conditions may differ.

T2 sequence (P11712 whole entry): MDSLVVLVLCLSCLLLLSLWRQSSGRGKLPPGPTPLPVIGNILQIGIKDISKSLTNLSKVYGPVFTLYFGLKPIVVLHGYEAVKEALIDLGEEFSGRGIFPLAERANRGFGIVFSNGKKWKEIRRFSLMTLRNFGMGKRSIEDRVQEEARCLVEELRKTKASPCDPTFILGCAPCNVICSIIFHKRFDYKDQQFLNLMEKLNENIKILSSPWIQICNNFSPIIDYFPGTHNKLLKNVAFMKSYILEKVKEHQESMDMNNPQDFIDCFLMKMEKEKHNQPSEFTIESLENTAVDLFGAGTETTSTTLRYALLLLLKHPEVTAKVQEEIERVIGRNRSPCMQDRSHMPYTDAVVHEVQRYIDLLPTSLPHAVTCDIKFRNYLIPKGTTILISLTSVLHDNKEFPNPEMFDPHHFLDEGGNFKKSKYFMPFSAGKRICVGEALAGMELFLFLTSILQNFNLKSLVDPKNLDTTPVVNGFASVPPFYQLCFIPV

On to `O=C(c1cccc2ccccc12)c1cn(CCCCCF)c2ccccc12` [AM-2201, 1-(5-fluoropentyl-1H-indol-3-yl)-(naphthalene-1-yl)methanone], for which the “inhibition of UGT1A6-catalyzed N-acetylserotonin glucuronidation” value against UGT1A6 was “negligibly inhibited”. On CYP2C9, the affinity, expressed as Ki, was 3.9 µM. Moreover, the “Inhibition Mode” value on CYP2C9 (CYP2C9 diclofenac 4′-hydroxylation) is recorded as “competitively inhibited; also recorded: competitive”. Besides, the IC50 – broadly, the midpoint of a concentration-inhibition curve – was found to be 11.9 µM on CYP2C9 (IC50 (μM) No Preincubation, Diclofenac 4′-hydroxylase, CYP2C9, human liver microsomes, 10 μM diclofenac); 11.9 µM at CYP2C9 (IC50 (μM) With Preincubation, Diclofenac 4′-hydroxylase, CYP2C9, 30 min preincubation with NADPH); 3.9 µM on CYP2C9 (IC50, CYP2C9-catalyzed diclofenac 4′-hydroxylation, abstract). In addition, the “inhibition of UGT1A9-catalyzed mycophenolic acid glucuronidation” value against UGT1A9 was “negligibly inhibited”.
